Experimental data as given in a melting point compilation (Tetko et al.).

First: O=[N+]([O-])c1cc(NS(=O)(=O)c2ccc3c(c2)OCCCO3)ccc1F
Second: CN(C)S(=O)(=O)c1ccc(F)c([N+](=O)[O-])c1
The melting point of the first is higher: 145 to 147 °C for the first, 118 to 120 °C for the second.

First: CC(C)(C)C(O)C(=O)O (stereo not given)
Second: CC(C)(C)OC(=O)Nc1snnc1C(=O)O
The melting point of the first is lower: 65 to 67 °C for the first, 139 to 141 °C for the second.

Compared with `Nc1sc2c(c1C(=O)c1ccc(Cl)cc1)CCCC2`, `CC1CCCCN1Cc1ccc(N)cc1` (stereo not given) is lower in melting point: 139 to 141 °C for the first, 54 to 56 °C for the second.

Compared with `Cc1cc(C(=O)O)c2cc(Br)ccc2n1`, `COc1ccc2nc(Sc3ncccc3C(=O)O)[nH]c2c1` is lower in melting point: 259 to 261 °C for the first, 219 to 221 °C for the second.

First: Nc1ccc(S(=O)(=O)N2CCCCCC2)cc1
Second: Nc1ccc(S(=O)(=O)NCC(F)(F)F)cc1
The melting point of the first is lower: 105 to 107 °C for the first, 128 to 130 °C for the second.

First: Nc1nnc(CCCc2cccs2)o1
Second: Cn1c(S)nnc1-c1ccccc1Cl
The melting point of the first is higher: 149 to 151 °C for the first, 144 to 146 °C for the second.

First: CC1(C)C(=O)NC(=O)N1CC(N)=O
Second: CC(C)CC(N)C(=O)N1CCNC(=O)C1 (stereo not given)
The melting point of the first is lower: 154 to 156 °C for the first, 162 to 164 °C for the second.

Compared with `Cc1csc2ccc(C#N)cc12`, `N#Cc1ccc(Cl)c(N)c1` is lower in melting point: 97 to 99 °C for the first, 87 to 91 °C for the second.

First: Nc1ccc(N2CCOCC2)c(S(=O)(=O)Nc2ccc(Cl)cc2)c1
Second: O=C(O)c1cccc(NS(=O)(=O)c2ccc(Cl)c(Cl)c2)c1
The melting point of the first is lower: 236 to 238 °C for the first, 254 to 256 °C for the second.

First: COc1cc(C=O)ccc1OCc1ccc(Br)cc1
Second: ClCc1ccnc(-c2ccc(Br)cc2)n1
The melting point of the first is lower: 74 to 76 °C for the first, 126 to 128 °C for the second.

First: COc1cc2c(cc1OC)CC(=O)NCC2
Second: C=CCc1cc(C(=O)O)cc(OC)c1OC
The melting point of the first is higher: 192 to 194 °C for the first, 124 to 126 °C for the second.

First: O=[N+]([O-])c1ccc2[nH]c(-c3cscn3)nc2c1
Second: O=S(=O)(O)c1nc2ccc(Cl)cc2[nH]1
The melting point of the first is lower: 257 to 259 °C for the first, 329 to 331 °C for the second.

Compared with `CCOC(=O)c1cc(-c2ccccc2)ccc1N`, `CCC(=O)c1ccc(Oc2ccccc2)cc1` is lower in melting point: 59 to 61 °C for the first, 39 to 41 °C for the second.

Compared with `CNC(=S)NCc1ccco1`, `CCCOc1ccccc1C(N)=S` is higher in melting point: 74 to 76 °C for the first, 100 to 102 °C for the second.

Compared with `NS(=O)(=O)c1cnn(CCC(=O)O)c1`, `O=C(O)c1cc(Br)cc(S(=O)(=O)Cl)c1` is higher in melting point: 126 to 128 °C for the first, 154 to 156 °C for the second.

First: CC(C)(C)C(=O)N1CCCC(C(=O)O)C1 (stereo not given)
Second: CC(=O)c1c(C)[nH]c(C(=O)O)c1C
The melting point of the first is lower: 179 to 181 °C for the first, 205 to 207 °C for the second.

Compared with `O=C(NCC1CCCNC1)c1ccccc1` (stereo not given), `O=C(O)C1=NN(c2ccccc2)C(=O)CC1` is higher in melting point: 82 to 84 °C for the first, 169 to 171 °C for the second.

First: O=C(O)CN1C(=O)COc2ccccc21
Second: O=C(O)CSc1nc2ccccc2s1
The melting point of the first is higher: 229 to 231 °C for the first, 159 to 161 °C for the second.

First: CNCC(=O)Nc1ccc(C)cn1
Second: CC(=O)c1sc(Cc2ccccc2)nc1C
The melting point of the first is higher: 79 to 81 °C for the first, 53 to 55 °C for the second.

Compared with `CCC(=O)c1c(C)nn(CCS(C)(=O)=O)c1C`, `Cc1cc(C=O)c(C)n1-c1nccs1` is lower in melting point: 154 to 156 °C for the first, 43 to 45 °C for the second.

Compared with `Nc1cccc(Oc2cnccn2)c1`, `Oc1cccc(Oc2cccnc2)c1` is higher in melting point: 89 to 91 °C for the first, 109 to 111 °C for the second.

First: O=C1Nc2c(ccc(Cl)c2Cl)C1=O
Second: O=C(O)c1cc(S(=O)(=O)Cl)c(F)cc1Cl
The melting point of the first is higher: 203 to 205 °C for the first, 144 to 146 °C for the second.

First: COC(=O)C(F)c1nc2ccccc2c(=O)[nH]1 (stereo not given)
Second: CCNc1nc(S)nc2ccccc12
The melting point of the first is lower: 147 to 160 °C for the first, 283 to 285 °C for the second.

Compared with `CCOC(=O)c1cc(N)[nH]n1`, `Cc1cc(=O)n2nc(CCl)sc2n1` is higher in melting point: 118 to 120 °C for the first, 183 to 185 °C for the second.

Compared with `COc1ccccc1NS(=O)(=O)c1ccc(NN)c([N+](=O)[O-])c1`, `COc1ccc2cc(-c3cc(C(=O)O)c4ccccc4n3)ccc2c1` is higher in melting point: 181 to 183 °C for the first, 258 to 260 °C for the second.

First: COc1cc(OC)cc(N2CCCNCC2)c1
Second: COc1cccc(C2C(C(=O)O)CC(=O)N2C2CC2)c1 (stereo not given)
The melting point of the first is lower: 50 to 52 °C for the first, 179 to 181 °C for the second.

First: NNC(=S)NCC(F)(F)F
Second: CC(C)(C)OC(=O)Nc1ccoc1
The melting point of the first is higher: 158 to 160 °C for the first, 139 to 141 °C for the second.

First: CN(C)Cc1nc(S)c2ccccc2n1
Second: Cc1sc(N)nc1-c1c[nH]c2ncccc12
The melting point of the first is lower: 131 to 133 °C for the first, 240 to 242 °C for the second.

Compared with `O=C(O)c1cccn1Cc1ccncc1`, `O=Cc1ccc(-n2ccnc2)nc1` is lower in melting point: 199 to 201 °C for the first, 139 to 141 °C for the second.

Compared with `C=CCSc1nnc(N)s1`, `COc1cccc(-n2c(C)nnc2SCC(=O)O)c1` is higher in melting point: 119 to 121 °C for the first, 130 to 132 °C for the second.

First: CC(=O)c1cccc(OCc2cc(C(=O)O)no2)c1
Second: Cc1cc(=O)c(C(=O)O)nn1-c1cccc(Cl)c1
The melting point of the first is lower: 169 to 171 °C for the first, 223 to 225 °C for the second.

First: Cc1cc(N2CCCS2(=O)=O)ccc1Br
Second: CC(C)c1ccc(C2(C(=O)O)CCC2)cc1
The melting point of the first is higher: 131 to 133 °C for the first, 119 to 121 °C for the second.

Compared with `CC1CCCC(NC(=O)CCl)C1C` (stereo not given), `Sc1nnc(C2CCCCC2)o1` is lower in melting point: 125 to 127 °C for the first, 81 to 83 °C for the second.

First: O=Cc1cccc2nccn12
Second: C#CCOc1cccc(C#N)c1
The melting point of the first is higher: 123 to 125 °C for the first, 61 to 63 °C for the second.

First: Nc1cc(-c2ccc(Br)cc2)ncn1
Second: CN(C)c1cncc(Cl)n1
The melting point of the first is higher: 251 to 253 °C for the first, 44 to 46 °C for the second.
